Data set [1] concerns primary porcine brain endothelial cells (PBECs). In words: Porcine BBB model transport assay. The settings on record: porcine vs human.
In data set [2] the test system is hiPSC-derived BMECs. Kind of data set: Human BBB model permeability, clone not specified or both clones. The settings on record: for Permeability classification in words: human BBB model, for several compounds stated for both human and porcine models.
Data set [3] is described as follows: Permeability assay across hiPSC-derived BMECs clone 1 on Transwell, co-culture with human astrocytes.
For data set [4], the system named is hiPSC-derived BMECs.
Data set [5] relates to hiPSC-derived BMECs (IMR-90). The settings on record: cited from earlier work.
Data set [6] is described as follows: in vitro. The settings on record: human.
Data set [7] is described as follows: in vitro. The settings on record: human. This is another data set of the same source.
Data set [8] in a line: Permeability assay across hiPSC-derived BMECs clone 2 on Transwell, co-culture with human astrocytes.
Data set [9] concerns primary porcine brain endothelial cells (PBECs). Particulars: cited from earlier work.
The nature of data set [10]: Human BBB model permeability, clone not specified or both clones. Particulars: human.
The subject of data set [11] is hiPSC-derived BMECs (Cl1). Kind of data set: Permeability assay across hiPSC-derived BMECs clone 1 on Transwell, co-culture with human astrocytes.
Data set [12] relates to hiPSC-derived BMECs (Cl1).
In data set [13] the test system is hiPSC-derived BMECs (r-iSPC 1j cells). Also noted: method as in Delsing et al. 34. Particulars: ref Delsing et al. 34; cited from earlier work.
The test system of data set [14] is hiPSC-derived BMECs. Particulars: ref Lippmann 6; cited from earlier work.
Data set [15] deals with human endothelial cell line hCMEC/D3. Further details: method as in PMID 30374619. The settings on record: cited from earlier work.
Data set [16] has as its system hiPSC-derived BMECs (Cl2).

Read-outs that look alike come from different tables or passages of the source.

For orientation: Papp means the rate of passage across a membrane or cell layer, normalised by area and donor concentration. Read a high Papp as fast passage. With `CC(C)[C@H](NC(=O)[C@H](CCC(=O)O)NC(=O)[C@H](Cc1ccccc1)NC(=O)[C@@H](C)NC(=O)[C@@H](N)Cc1ccc(O)cc1)C(=O)N[C@H](C(=O)NCC(N)=O)C(C)C` [[D-Ala2]deltorphin II], the Papp was found to be 7.7 ± 1.7 ×10⁻⁶ cm/s. Also, the “Fold higher permeability in the porcine than in the human model” value in [1] is “two-fold”. Further, the “Permeability classification in words” value in the data set on hiPSC-derived BMECs [2] is reported as “moderate permeability”. In data set [3], this compound showed a Papp of 3.8 ± 0.5 ×10⁻⁶ cm/s.
On to `Cn1c(=O)c2c(ncn2C)n(C)c1=O` [caffeine], for which, in the data set on hiPSC-derived BMECs [4], the “Permeability classification in words” value is on record as “highly permeable”. For the same compound, in data set [5] (IMR-90 cells, ref Appelt-Menzel et al. 36), the Published permeability was 25.3 ×10⁻⁶ cm/s. Moreover, the Papp in the data set “in vitro [6]” (Permeability human BBB_Cl1) was 30.7 ± 2 ×10⁻⁶ cm/s; in the data set “in vitro [7]”, 27 to 31 ×10⁻⁶ cm/s; in data set [8] it was 26.5 ± 0.6 ×10⁻⁶ cm/s.
Regarding `CCC(=O)CCCCCC(NC(=O)C1CN(C)C1)c1ncc(-c2cc3ccccc3nc2OC)o1` (stereo not shown) [cpK], the “Permeability porcine BBB” value in [9] is 10.5 ± 3.4 x10^-6 cm/s. The Papp in data set [10] is 15.4 ± 8.3 ×10⁻⁶ cm/s. Besides, in the data set on hiPSC-derived BMECs [2], the “Permeability classification in words” value is given as “medium permeability”.
Consider `COc1cccc2c1C(=O)c1c(O)c3c(c(O)c1C2=O)C[C@@](O)(C(C)=O)C[C@@H]3O[C@H]1C[C@H](N)[C@H](O)[C@H](C)O1` [daunomycin], for which the “Fold higher permeability in the human than in the porcine model” value with hiPSC-derived BMECs [4] is on record as “two-fold”. Also, in the data set with hiPSC-derived BMECs [4], the “Permeability classification in words” value is “medium permeability”. Further, the apparent permeability coefficient (Papp) is 9.3 ± 2.7 ×10⁻⁶ cm/s in “in vitro [6]” (Permeability human BBB_Cl1), 7 to 9 ×10⁻⁶ cm/s in “in vitro [7]” and 6.5 ± 0.7 ×10⁻⁶ cm/s in data set [8].
The Papp B→A is the apparent permeability from the basolateral to the apical side of a cell layer. `C[C@H]1O[C@@H](O[C@H]2[C@@H](O)C[C@H](O[C@H]3[C@@H](O)C[C@H](O[C@H]4CC[C@@]5(C)[C@H](CC[C@@H]6[C@@H]5C[C@@H](O)[C@]5(C)[C@@H](C7=CC(=O)OC7)CC[C@]65O)C4)O[C@@H]3C)O[C@@H]2C)C[C@H](O)[C@@H]1O` [digoxin] displayed a Papp B→A in “in vitro [6]” of 7.3 ± 0.6 ×10⁻⁶ cm/s.
For the compound `NCC1(CC(=O)O)CCCCC1` [gabapentin], the Papp stood at 12 ×10⁻⁶ cm/s in “in vitro [7]” and 11.9 ± 2.9 ×10⁻⁶ cm/s in data set [3] (human). The “Permeability classification in words” value in the data set on hiPSC-derived BMECs [2] is reported as “moderate to high permeability”.
As for `OC[C@H]1OC(O)[C@H](O)[C@@H](O)[C@@H]1O` (stereo partly shown) [glucose], the “Fold higher permeability in the human than in the porcine model” value in the data set with hiPSC-derived BMECs [4] (human and pig) is “more than 3.5”. In addition, the Papp in the data set “in vitro [6]” (Permeability human BBB_Cl1) came out at 25 ± 2.7 ×10⁻⁶ cm/s; in data set [8], 25.2 ± 7.9 ×10⁻⁶ cm/s. Besides, the “Permeability in the porcine model” value in [9] was 7 ×10⁻⁶ cm/s. Also, the “Inhibition of transport by phloretin” value in [11] (200 µM phloretin) is listed as approximately 80%.
For `O=C(O)c1cc(=O)c2ccccc2[nH]1` [kynurenic acid], in the data set with hiPSC-derived BMECs [4], the “Permeability classification in words” value is “low permeability”. Further, the Papp in “in vitro [6]” (Permeability human BBB_Cl1) stood at 0.32 ± 0.06 ×10⁻⁶ cm/s; in the data set “in vitro [7]”, 0.3 ×10⁻⁶ cm/s. Also, in data set [9] (porcine model), the “Permeability in porcine (unit not given)” value was 2.8.
As a reminder, the Papp A→B is how fast a substance crosses the layer from the apical side. A high value points to fast passage. With `CC(C)C[C@H](N)C(=O)O` [leucine], in [12], the “Vectorial transport, AB direction over BA direction” value is given as “three-fold”. In the data set on hiPSC-derived BMECs [4], the “Fold higher permeability in the human than in the porcine model” value was “about three-fold” and the “Permeability classification in words” value was “highly permeable”. In addition, in “in vitro [6]”, the Papp A→B came to 18.5 ± 2.2 ×10⁻⁶ cm/s and the Papp B→A turned out to be 6.4 ± 0.7 ×10⁻⁶ cm/s. Further, in “in vitro [6]” (Permeability human BBB_Cl1), the Papp is 18 ± 1.8 ×10⁻⁶ cm/s. Moreover, the Papp in “in vitro [7]” was in the range of 18 to 20 ×10⁻⁶ cm/s. Also, the “Reduction of transport in the presence of JPH203” value in data set [11] (10 µM JPH203, selective LAT1 inhibitor) was “about 70%”. In [8], the Papp came to 19.9 ± 6.4 ×10⁻⁶ cm/s.
For the compound `OC[C@@H](O)[C@@H](O)[C@H](O)[C@H](O)CO` [mannitol], the Papp in “in vitro [6]” (Permeability fresh) was 0.56 ± 0.28 ×10⁻⁶ cm/s; in the data set “in vitro [6]” (Permeability frozen), 0.67 ± 0.25 ×10⁻⁶ cm/s; in “in vitro [6]” (Permeability human BBB_Cl1), 0.6 ± 0.24 ×10⁻⁶ cm/s; in data set [8] it was 0.8 ± 0.1 ×10⁻⁶ cm/s.
For the compound `CN(Cc1cnc2nc(N)nc(N)c2n1)c1ccc(C(=O)N[C@@H](CCC(=O)O)C(=O)O)cc1` [methotrexate], the results for the Papp (in the data set “in vitro [6]” (Permeability human BBB_Cl1); in [8]) were 0.65 ± 0.12 ×10⁻⁶ cm/s and 0.77 ± 0.1 ×10⁻⁶ cm/s, respectively. Also, the “Fold higher permeability in the porcine than in the human model” value in [1] was “eight times”.
For `N[C@@H](Cc1ccccc1)C(=O)O` [phenylalanine], in the data set with hiPSC-derived BMECs [2] (human vs porcine), the “Fold higher permeability in the human than in the porcine model” value is “two-fold”. The compound also had a Papp in data set [8] of 28.6 ± 5.7 ×10⁻⁶ cm/s.
For the compound `O=C1NC(=O)C(c2ccccc2)(c2ccccc2)N1` [phenytoin], in [13], the Published permeability was 35.6 ×10⁻⁶ cm/s. Besides, the Papp was 19 to 21 ×10⁻⁶ cm/s in data set [10]; 21.3 ± 2.1 ×10⁻⁶ cm/s in [3] (human, Permeability human BBB_Cl1, Figure 5C, mean ± sd); 18.6 ± 0.9 ×10⁻⁶ cm/s in data set [8]. The “Permeability classification in words” value in the data set on hiPSC-derived BMECs [2] is on record as “highly permeable”.
Regarding `COc1cc2nc(N3CCN(C(=O)c4ccco4)CC3)nc(N)c2cc1OC` [prazosin], the figures for the Published permeability (in data set [5] (ref Kurosawa 20); in the data set on hiPSC-derived BMECs [14]) were 8.7 ×10⁻⁶ cm/s and 4.3 ×10⁻⁶ cm/s, respectively.
Regarding `CC(C)C[C@H](CN)CC(=O)O` [pregabalin], the “Inhibition in the uptake after LAT-1 mRNA silencing” value in data set [15] is 75%.
For `CC(C)NCC(O)COc1cccc2ccccc12` (stereo not shown) [propranolol], in the data set with hiPSC-derived BMECs [4], the “Permeability classification in words” value was “highly permeable”. The Published permeability is 22.6 ×10⁻⁶ cm/s in [13] and “around 30 × 10^−6 cm/s” in data set [5] (ref Mantle et al. 35). Besides, the Papp in “in vitro [6]” (Permeability human BBB_Cl1) was 25.8 ± 4.6 ×10⁻⁶ cm/s; in the data set “in vitro [7]”, 22 to 26 ×10⁻⁶ cm/s; in [8], 22 ± 2.4 ×10⁻⁶ cm/s.
As usually defined, the efflux ratio is the permeability from basolateral to apical divided by that in the opposite direction, in the common usage. Consider `CC(=O)O[C@H]1C(=O)[C@@]2(C)[C@H]([C@H](OC(=O)c3ccccc3)[C@]3(O)C[C@H](OC(=O)[C@H](O)[C@@H](NC(=O)c4ccccc4)c4ccccc4)C(C)=C1C3(C)C)[C@]1(OC(C)=O)CO[C@@H]1C[C@@H]2O` [taxol], for which, in the data set “in vitro [6]”, the Papp A→B turned out to be 6.3 ± 0.6 ×10⁻⁶ cm/s, the Papp B→A worked out at 15.4 ± 0.5 ×10⁻⁶ cm/s and the efflux ratio amounted to 2.4. Moreover, in the data set “in vitro [6]” (Permeability human BBB_Cl1), the Papp is 6.8 ± 0.7 ×10⁻⁶ cm/s. Also, the Papp in data set [8] came to 4.9 ± 1 ×10⁻⁶ cm/s.
For the compound `CC[C@]1(O)C[C@@H]2CN(CCc3c([nH]c4ccccc34)[C@@](C(=O)OC)(c3cc4c(cc3OC)N(C)[C@H]3[C@@](O)(C(=O)OC)[C@H](OC(C)=O)[C@]5(CC)C=CCN6CC[C@]43[C@@H]65)C2)C1` [vinblastine], in the data set with hiPSC-derived BMECs [4], the “Fold higher permeability in the human than in the porcine model” value is on record as “two-fold” and the “Permeability classification in words” value is reported as “medium permeability”. In the data set “in vitro [6]”, the efflux ratio is 1.5. In the data set “in vitro [6]” (Permeability human BBB_Cl1), the Papp was found to be 4.1 ± 0.4 ×10⁻⁶ cm/s. The compound also returned a Papp in data set [8] of 3.5 ± 0.8 ×10⁻⁶ cm/s.
Regarding lucifer yellow, in [12], the “Permeability A-B” value is listed as 0.15 ± 0.001 x10^-6 cm/s, the “Permeability B-A” value is given as 0.13 ± 0.004 x10^-6 cm/s, the Permeability fresh is reported as 0.21 ± 0.12 x10^-6 cm/s and the Permeability frozen is on record as 0.09 ± 0.04 x10^-6 cm/s. Also, in data set [12], the “Permeability human BBB_Cl1” value was 0.18 ± 0.11 x10^-6 cm/s and the efflux ratio is 0.9. Further, in [16], the “Permeability human BBB_Cl2” value is recorded as 0.33 ± 0.30 x10^-6 cm/s.

The record behind these values is publication PMC7226989, “Establishment of an in Vitro Human Blood-Brain Barrier Model Derived from Induced Pluripotent Stem Cells and Comparison to a Porcine Cell-Based System” (Cells, 2020).
